# Several values for one entry are separate records, joined by “and”; a condition that tells them apart may be missing. Identical values can stand only once.
# How the values were obtained:
# [1] = test system: PD patients with constipation; experiment: Phase 2 trial Stage 1: prokinetic response to single escalating oral doses; format: in vivo, human; conditions: Stage 1, single oral dose
# Text: (§1) Tolerability limits included diarrhea or vomiting.
# [2] = test system: PD patients with constipation; experiment: Phase 2 trial Stage 1: adverse events; format: in vivo, human; conditions: Stage 1, dosed 10
# Text: as §1
# C. elegans model of PD = conditions: cited from earlier work
# [3] = test system: PD patients with constipation; experiment: Phase 2 trial Stage 2: CNS symptoms (UPDRS, MMSE, PDHQ, BDI-II); format: in vivo, human; conditions: for PDHQ (Mean): baseline 1.3 (2.99); for BDI-II (Mean): baseline 10.9 (7.12)
# Protocol: (9) Unified Parkinson's Disease Rating Scale (UPDRS), which consists of 42 items in four subscales (Part I=Non-Motor Aspects of Experiences of Daily Living (nM-EDL) (1.1 cognitive impairment, 1.2 hallucinations and psychosis, 1.3 depressed mood; Part II=Motor Aspects of Experiences of Daily Living (M-EDL), Part III=Motor Examination, and Part IV=Motor Complications;
# Assessments were made at baseline and at the end of the fixed dose and washout periods. Circadian system status was evaluated by continuously monitoring wrist skin temperature (Thermochron iButton DS1921H; Maxim, Dallas) following published procedures (Sarabia et al. 2008).
# An exploratory analysis was done with respect to the sleep data, the body temperature data, mood, fatigue, hallucinations, cognition and other motor and non-motor symptoms of PD. Continuous measurements within a subject were compared with a paired t-test and continuous measurements between subject groups were compared with a two-group t-test. Categorical data were compared with a chi-squared test or a Fisher's exact test if the expected cell counts are too small for a chi-squared test.
# CNS symptoms were evaluated at baseline and at the end of the fixed dose period and the wash-out period (Table 11). Total UPDRS score was 64.4 at baseline, 60.6 at the end of the fixed dose period and 55.7 at the end of the wash-out period (p=0.002); similarly, the motor component of the UPDRS improved from 35.3 at baseline to 33.3 at the end of fixed dose to 30.2 at the end of wash-out (p=0.006). MMSE improved from 28.4 at baseline to 28.7 during treatment and to 29.3 during wash-out (p=0.0006). […] PDHQ improved from 1.3 at baseline to […] during treatment and 0.9 during wash-out (p=0.03). Hallucinations were reported by 5 patients at baseline and delusions in 1 patient. […] Unlike stool-related indices, the improvement in many CNS symptoms persisted during wash-out.
# [4] = test system: PD patients with constipation; experiment: Phase 2 trial Stage 2: adverse events; format: in vivo, human
# Protocol: (§2) In Stage 2, 34 patients were evaluated.
# [5] = test system: PD patients with constipation; experiment: Phase 2 trial Stage 2: bowel function under daily oral dosing (escalation, fixed dose, randomization, wash-out); format: in vivo, human; conditions: for CSBM/week: randomized cohort
# Protocol: as §2
# The primary efficacy outcome variable was whether or not a subject was a “success” or “failure”. This is an endpoint based on subject diary entries for the “fixed dose” period prior to the endpoint assessment defined as average complete stool frequency increase by 1 or more over baseline, or 3 or more complete spontaneous stools/week. The subject was deemed a “success” if s/he met one or more of the criteria listed above, otherwise the subject was deemed a “failure”. The primary analysis was based on all subjects with a baseline assessment and an assessment at the end of the “fixed-dose” period and was a comparison of the proportion of successes with 0.10 (the null hypothesis corresponding to no treatment effect).
# [6] = test system: PD patients with constipation; experiment: Phase 2 trial, both Stages: adverse events in all dosed patients (n = 44); format: in vivo, human
# Protocol: Adverse events were coded using the current version of MedDRA. Severity of AEs were assessed by investigators according to CTCAE (v4.03): Grade 1 is labeled as Mild, Grade 2 as Moderate, and Grade 3 and above as Severe. […] The number (percentage) of subjects who experienced an AE during escalation and fixed dosing periods were summarized by dose level and overall for each stage. The denominator for calculating the percentages were based on the number of subjects ever exposed to each dose and overall.
# αS = αS (Homo sapiens, UniProt P37840); conditions: in vitro; cited from earlier work
# [7] = test system: PD population with constipation; conditions: short term placebo controlled trial in PD; loose stools/diarrhea in place of constipation; cited from earlier work
# mouse models of PD = conditions: several mouse models of PD; cited from earlier work
# [8] = following systemic administration, in mice; into the duodenum through the biliary tract; cited from earlier work
# [9] = Stage 2, dosed 34, unrelated to ENT-01
compound,measurement,setting,value
"CC(C)[C@@H](CC[C@@H](C)[C@H]1CC[C@H]2[C@@H]3[C@H](O)C[C@H]4C[C@@H](NCCCNCCCCN)CC[C@]4(C)[C@H]3CC[C@]12C)OS(=O)(=O)O (single isomer, unassigned) [squalamine (ENT-01)]",cumulative prokinetic response rate (patients with a CSBM within 24 hours of dosing),[1]; 25 mg,25%
same,cumulative prokinetic response rate (patients with a CSBM within 24 hours of dosing),[1]; 200 mg (maximum),80%
same,"adverse event: Abdominal pain, Mild",[2],"2 (20) n, %"
same,"adverse event: Abdominal pain, Moderate",[2],"3 (30) n, %"
same,"adverse event: Diarrhea, Mild",[2],"1 (10) n, %"
same,"adverse event: Diarrhea, Moderate",[2],"3 (30) n, %"
same,"adverse event: Diarrhea, Severe",[2],"0 n, %"
same,"adverse event: Difficulty falling asleep, Mild",[2],"0 n, %"
same,"adverse event: Difficulty falling asleep, Moderate",[2],"0 n, %"
same,"adverse event: Dizziness, Mild",[2],"0 n, %"
same,"adverse event: Dizziness, Moderate",[2],"0 n, %"
same,"adverse event: Eye infection, Mild",[2],"0 n, %"
same,"adverse event: Eye infection, Moderate",[2],"0 n, %"
same,"adverse event: Flatulence, Mild",[2],"2 (20) n, %"
same,"adverse event: Flatulence, Moderate",[2],"0 n, %"
same,"adverse event: Headache, Mild",[2],"1 (10) n, %"
same,"adverse event: Headache, Moderate",[2],"0 n, %"
same,"adverse event: Increased urinary frequency, Mild",[2],"0 n, %"
same,"adverse event: Increased urinary frequency, Moderate",[2],"0 n, %"
same,"adverse event: Nausea, Mild",[2],"4 (40) n, %"
same,"adverse event: Nausea, Moderate",[2],"0 n, %"
same,"adverse event: Skin lesions-rash, Mild",[2],"0 n, %"
same,"adverse event: Skin lesions-rash, Moderate",[2],"0 n, %"
same,"adverse event: Urinary retention, Mild",[2],"0 n, %"
same,"adverse event: Urinary retention, Moderate",[2],"0 n, %"
same,"adverse event: Urinary tract infection, Mild",[2],"0 n, %"
same,"adverse event: Urinary tract infection, Moderate",[2],"0 n, %"
same,"adverse event: Vomiting, Mild",[2],"1 (10) n, %"
same,"adverse event: Vomiting, Moderate",[2],"0 n, %"
same,"adverse event: Worsening acid reflux, Mild",[2],"0 n, %"
same,"adverse event: Worsening acid reflux, Moderate",[2],"0 n, %"
same,"adverse event: Worsening hemorrhoid, Mild",[2],"0 n, %"
same,"adverse event: Worsening hemorrhoid, Moderate",[2],"0 n, %"
same,"adverse event: Blood in urine, Mild",[2]; unrelated to ENT-01,"1 (10) n, %"
same,"adverse event: Blood in urine, Moderate",[2]; unrelated to ENT-01,"0 n, %"
same,"adverse event: Loss of appetite, Mild",[2]; unrelated to ENT-01,"1 (10) n, %"
same,"adverse event: Loss of appetite, Moderate",[2]; unrelated to ENT-01,"0 n, %"
same,"adverse event: Lower GI bleed, Severe",[2]; unrelated to ENT-01,"0 n, %"
same,effect on formation of aggregates of αS,C. elegans model of PD; C. elegans model of PD in vivo,inhibit the formation of aggregates of αS
same,PDHQ (Mean),"[3]; Stage 2, fixed dose, n = 34, P 0.45",1.8
same,BDI-II (Mean),"[3]; Stage 2, fixed dose, n = 34, P 0.14",9.9
same,PDHQ (Mean),"[3]; Stage 2, wash-out, n = 34, P 0.03",0.9
same,BDI-II (Mean),"[3]; Stage 2, wash-out, n = 34, P 0.10",8.7
same,UPDRS Part 1 (NMS) (Mean),"[3]; Stage 2, wash-out, n = 34, baseline 11.6 (6.51), P 0.06",9.5
same,patients in whom hallucinations and delusions improved or disappeared,"[3]; during treatment, hallucinations in 5 patients and delusions in 1 patient at baseline",5 of 6
same,patients with diarrhea,"[4]; Stage 2, 15/34",44%
same,patients who withdrew during dosing because of diarrhea,"[4]; Stage 2, 34 dosed",2
same,"adverse event: Abdominal pain, Mild","[4]; Stage 2, dosed 34",4 n
same,"adverse event: Abdominal pain, Moderate","[4]; Stage 2, dosed 34",2 n
same,"adverse event: Diarrhea, Mild","[4]; Stage 2, dosed 34",12 n
same,"adverse event: Diarrhea, Moderate","[4]; Stage 2, dosed 34",2 n
same,"adverse event: Diarrhea, Severe","[4]; Stage 2, dosed 34",1 n
same,"adverse event: Difficulty falling asleep, Mild","[4]; Stage 2, dosed 34",1 n
same,"adverse event: Difficulty falling asleep, Moderate","[4]; Stage 2, dosed 34",0 n
same,"adverse event: Dizziness, Mild","[4]; Stage 2, dosed 34",7 n
same,"adverse event: Dizziness, Moderate","[4]; Stage 2, dosed 34",1 n
same,"adverse event: Eye infection, Mild","[4]; Stage 2, dosed 34",1 n
same,"adverse event: Eye infection, Moderate","[4]; Stage 2, dosed 34",0 n
same,"adverse event: Flatulence, Mild","[4]; Stage 2, dosed 34",1 n
same,"adverse event: Flatulence, Moderate","[4]; Stage 2, dosed 34",0 n
same,"adverse event: Headache, Mild","[4]; Stage 2, dosed 34",3 n
same,"adverse event: Headache, Moderate","[4]; Stage 2, dosed 34",0 n
same,"adverse event: Increased urinary frequency, Mild","[4]; Stage 2, dosed 34",2 n
same,"adverse event: Increased urinary frequency, Moderate","[4]; Stage 2, dosed 34",0 n
same,"adverse event: Nausea, Mild","[4]; Stage 2, dosed 34",18 n
same,"adverse event: Nausea, Moderate","[4]; Stage 2, dosed 34",1 n
same,"adverse event: Skin lesions-rash, Mild","[4]; Stage 2, dosed 34",3 n
same,"adverse event: Skin lesions-rash, Moderate","[4]; Stage 2, dosed 34",0 n
same,"adverse event: Urinary retention, Mild","[4]; Stage 2, dosed 34",1 n
same,"adverse event: Urinary retention, Moderate","[4]; Stage 2, dosed 34",0 n
same,"adverse event: Urinary tract infection, Mild","[4]; Stage 2, dosed 34",1 n
same,"adverse event: Urinary tract infection, Moderate","[4]; Stage 2, dosed 34",2 n
same,"adverse event: Vomiting, Mild","[4]; Stage 2, dosed 34",2 n
same,"adverse event: Vomiting, Moderate","[4]; Stage 2, dosed 34",0 n
same,"adverse event: Worsening acid reflux, Mild","[4]; Stage 2, dosed 34",4 n
same,"adverse event: Worsening acid reflux, Moderate","[4]; Stage 2, dosed 34",0 n
same,"adverse event: Worsening hemorrhoid, Mild","[4]; Stage 2, dosed 34",1 n
same,"adverse event: Worsening hemorrhoid, Moderate","[4]; Stage 2, dosed 34",0 n
same,"adverse event: Lower GI bleed, Severe","[4]; Stage 2, dosed 34, colonic diverticulosis, polyp, patient on aspirin, Plavix and naproxen, unrelated to ENT-01",1 n
same,"adverse event: Blood in urine, Mild",[4]; [9],0 n
same,"adverse event: Blood in urine, Moderate",[4]; [9],0 n
same,"adverse event: Loss of appetite, Mild",[4]; [9],0 n
same,"adverse event: Loss of appetite, Moderate",[4]; [9],0 n
same,patients terminated prior to completion because of recurrent dizziness,"[4]; Stage 2, two of 34 dosed",5.8%
same,"CSBM, weekly average (mean, SD)","[5]; Stage 2, fixed dose, n = 34, baseline 1.2 (0.90), P 2.3 × 10^−8",3.8 /week and 3.8 (2.40) /week
same,"Suppository use / rescue medication, weekly average (mean, SD)","[5]; Stage 2, fixed dose, n = 34, baseline 1.8 (1.92), P 1.33 × 10^−5",0.3 /week and 0.3 (0.67) /week
same,"SBM, weekly average (mean, SD)","[5]; Stage 2, fixed dose, n = 34, baseline 2.6 (1.45), P 6.4 × 10^−6",4.5 /week and 4.5 (2.21) /week
same,"Consistency (Mean, SD)","[5]; Stage 2, wash-out, Bristol stool scale, baseline 2.7 (1.20), P vs. baseline 0.85",2.8 (1.39)
same,"CSBM (Mean, SD)","[5]; Stage 2, wash-out, baseline 1.2 (0.90), P wash-out vs. baseline 0.01",1.8 (1.19) /week
same,"PAQ-SYM (Mean, SD)","[5]; Stage 2, wash-out, baseline 1.3 (0.45), P vs. baseline 0.11",1.1 (0.60)
same,"PAQ-QOL (Mean, SD)","[5]; Stage 2, wash-out, baseline 1.4 (0.49), P vs. baseline 0.04",1.2 (0.63)
same,"Rescue meds (Mean, SD)","[5]; Stage 2, wash-out, baseline 1.8 (1.92), P vs. baseline 0.13",1.0 (1.40) /week
same,"SBM (Mean, SD)","[5]; Stage 2, wash-out, baseline 2.6 (1.45), P vs. baseline 0.16",3.2 (1.80) /week
same,"Ease (Mean, SD)","[5]; Stage 2, wash-out, ease of evacuation scale, baseline 3.2 (0.73), P vs. baseline 0.78",3.3 (0.81)
same,improvement of SBM/week,[5]; fixed dose vs baseline (2.6 to 4.5),73%
same,mean dose required for a prokinetic response,"[5]; patients with baseline ≥1 CSBM/week, relation to baseline severity p=0.00055",120 mg
same,CSBM/week,"[5]; Treatment arm (n = 6), fixed dose period, baseline 0.8",3.2 CSBM/week
same,CSBM/week,"[5]; Treatment arm (n = 6), randomized period (4-6 days), baseline 0.8",2.4 CSBM/week
same,CSBM/week,"[5]; Treatment arm (n = 6), washout, baseline 0.8",0.9 CSBM/week
same,CSBM/week,"[5]; patients later given placebo (n = 9), fixed dose period on drug, baseline 1.6",3.3 CSBM/week
same,patients with worsening of hemorrhoids,[6]; 1/44,2.2%
same,patients with worsening of acid reflux,[6]; 2/44,4.5%
same,patients with flatulence,[6]; 3/44,6.8%
same,patients with vomiting,[6]; 3/44,6.8%
same,patients with dizziness,[6]; 8/44,18%
same,patients with abdominal pain,[6]; 11/44,32%
same,effect on formation of aggregates of αS,αS,inhibit the formation of aggregates of αS
CCCCC(F)(F)[C@@]1(O)CC[C@H]2[C@@H](CC(=O)[C@@H]2CCCCCCC(=O)O)O1 [Lubiprostone],share of treated patients in whom effective,[7],about 50%
CC(C)[C@@H](CC[C@@H](C)[C@H]1CC[C@H]2[C@@H]3[C@H](O)C[C@H]4C[C@@H](NCCCNCCCCN)CC[C@]4(C)[C@H]3CC[C@]12C)OS(=O)(=O)O [squalamine],effect on gastrointestinal dysmotility,mouse models of PD,reverse gastrointestinal dysmotility
same,effect on muscle paralysis,C. elegans model of PD; C. elegans model,complete reversal of muscle paralysis
same,clearance and excretion,[8],cleared by the liver and excreted as the intact molecule

# Reference: patent US20200038414A1, “METHODS OF TREATING CONSTIPATION USING AMINOSTEROL COMPOSITIONS” (Enterin, Inc., priority 2018, published 2020)
